Here are results for 58 compounds from ChEMBL document CHEMBL3988181, “GlaxoSmithKline Published Kinase Inhibitor Set 2 Onchocerca lienalis Screening Data”.

Molecules are shown by their SMILES.

The nature of the assay: GSK PKIS2: Screen against O. lienalis microfilariae, single point, at 3.1uM to assess reduction in motility. Compounds were also tested for cytotoxicity against Rhesus Monkey LLCMK2 cells. Format: functional, Onchocerca lienalis, LLC-MK2. As to conditions: CELL_LINE LLCMK2; CELL_SUPPLIER ECACC; CONC 3.1 uM; ORGANISM_SUPPLIER Extracted from peri-umbilical skin obtained from naturally infected cattle in the UK; temperature 37 degree C.
For `Nc1nccc2scc(-c3ccc4c(c3)CCN4C(=O)Cc3cc(F)ccc3F)c12`, the “MOTILITY REDUCTION/CYTOTOXICITY” value came out at 0%. For the compound `COc1cccc(NC(=O)NCCNc2ccnc(Nc3ccc(F)cc3)n2)c1`, the “MOTILITY REDUCTION/CYTOTOXICITY” value is listed as 33.4%.

Regarding `O=C(NCCCN1CCOCC1)c1cccc(Nc2nccc(Nc3ccc(Oc4ccccc4)cc3)n2)c1`, the “MOTILITY REDUCTION/CYTOTOXICITY” value was determined as 13.4%.

Regarding `CCCc1ccc(S(=O)(=O)NC2CCN(c3ccnc(Nc4ccc(OC)cc4)n3)C2)cc1` (stereo not drawn), the “MOTILITY REDUCTION/CYTOTOXICITY” value is 0%. With `Cc1c(Cn2c3ccccc3n3c(=O)cc(N4CCOCC4)nc23)cccc1C(F)(F)F` the figure was 0%; with `COc1ccccc1C1=C(Nc2ccc(O)c(Cl)c2)C(=O)NC1=O`, 0%; with `O=C(NCc1cccs1)c1cc(C(=O)c2c(Cl)cccc2Cl)c[nH]1`, 0%. As for `O=C(Nc1ccccc1F)NC1CCN(c2ccnc(Nc3ccc(F)cc3)n2)C1` (stereo not drawn), the figure is 0%. With `O=C(Nc1n[nH]c2nc(-c3cccs3)c(Br)cc12)C1CC1` the figure was 0%. Turning to `Cc1ccc(Nc2ccnc(Nc3ccc(C)c(F)c3)n2)cc1O`, the “MOTILITY REDUCTION/CYTOTOXICITY” value is 33.4%. As for `COc1ccc(Nc2nccc(N3CCC(NC(=O)Nc4cc(C)ccc4C)C3)n2)cc1` (stereo not drawn), the figure is 0%.

With `COc1ccc(C2=C(Nc3cccc(O)c3)C(=O)NC2=O)cc1`, the “MOTILITY REDUCTION/CYTOTOXICITY” value was 13.4%. With `COc1ccc(NC(=O)c2ccc(-c3cc(-c4nnc(C)o4)ccc3C)cc2)cc1` the figure was 33.4%; with `CC(C)S(=O)(=O)N1CCN(Cc2ccc3c(c2)nc(NC(=O)c2ccsc2)n3C[C@H](O)c2ccccc2)CC1`, 0%. As for `Cc1ccc(C)c(NC(=O)Nc2ccc(C)c(-c3ccc(C(=O)Nc4ccncc4)cc3)c2)c1`, the figure is 33.4%. With `Nc1n[nH]c2ncc(-c3ccccc3)cc12` the figure was 0%; with `O=C(Nc1n[nH]c2cc(-c3ccco3)ccc12)C1CC1`, 0%. Take `COc1cc(Nc2nccc(N3CCC(NC(=O)Nc4ccc5c(c4)OCO5)C3)n2)cc(OC)c1OC` (stereo not drawn): the “MOTILITY REDUCTION/CYTOTOXICITY” value worked out at 0%. In the case of `CSc1ccc(NC2=C(c3cccc(Cl)c3)C(=O)NC2=O)cc1`, the “MOTILITY REDUCTION/CYTOTOXICITY” value was found to be 0%. With `COc1cc(Nc2nccc(N3CCC(NC(=O)C4COc5ccccc5O4)C3)n2)cc(OC)c1OC` (stereo not drawn), the “MOTILITY REDUCTION/CYTOTOXICITY” value was found to be 0%. As for `COc1ccc(C2=C(Nc3cccc(C(=O)O)c3)C(=O)NC2=O)cc1`, the figure is 20%; as for `COc1cc2ncnc(Nc3ccc4nc(-c5ccccc5)[nH]c4c3)c2cc1OC`, 73.4%. As for `COc1cccc(CNC(=O)NC2CCN(c3ccnc(Nc4ccc(F)cc4)n3)C2)c1` (stereo not drawn), the figure is 33.4%; as for `Fc1ccc(-c2ncn(CCCN3CCOCC3)c2-c2ccccn2)cc1`, 13.4%; as for `NS(=O)(=O)CCc1cccc(Nc2nccc(-c3c(-c4cccc(NC(=O)c5c(F)cccc5F)c4)nn4ccccc34)n2)c1`, 33.4%.

In the case of `CN1C(=O)C(Nc2cc(Cl)c(O)c(Cl)c2)=C(c2ccc(Cl)cc2)C1=O`, the “MOTILITY REDUCTION/CYTOTOXICITY” value is given as 0%.

In the case of `Fc1cccc(COc2ccc(Nc3ncnc4sc(-c5ccc[nH]5)cc34)cc2Cl)c1`, the “MOTILITY REDUCTION/CYTOTOXICITY” value was determined as 100%. As for `O=c1cc(N2CCOCC2)nc2n(Cc3cccc(Cl)c3Cl)ccn12`, the figure is 80%. As for `CC(=O)c1c(-c2ccncc2)[nH]c(-c2ccncc2)c1C`, the figure is 33.4%; as for `COc1cccc(C2=C(Nc3cccc(C(=O)O)c3)C(=O)NC2=O)c1`, 0%. As for `CC(C)(C)OC(=O)NC1CCCN(c2cc(-c3ccc4c(N)n[nH]c4c3)nc(N)n2)C1` (stereo not drawn), the figure is 0%; as for `Cc1cc(-c2ccnc(Nc3cccc(C#N)c3)n2)cc(C)c1O`, 0%; as for `C[C@@H]1CC[C@@H](C(=O)Nc2ccccc2)CN1c1cc(-c2ccc3c(N)n[nH]c3c2)nc(N)n1`, 0%.

For `O=C(c1ccc(-c2cc(-c3c[nH]nc3-c3ccccn3)ccn2)cc1)N1CCCC1`, the “MOTILITY REDUCTION/CYTOTOXICITY” value is 0%. With `NC[C@H](CC1CCCCC1)NC(=O)c1ccc(-c2ccnc3[nH]ccc23)s1`, the “MOTILITY REDUCTION/CYTOTOXICITY” value turned out to be 66.7%.

Consider `COc1cc2ncn(-c3cc(OCC4CCCO4)c(C(N)=O)s3)c2cc1OC` (stereo not drawn), for which the “MOTILITY REDUCTION/CYTOTOXICITY” value stood at 46.7%. For the compound `COc1ccc2cc(-c3nc(-c4ccccc4C(C)C)[nH]c3-c3ccncc3)ccc2c1`, the “MOTILITY REDUCTION/CYTOTOXICITY” value stood at 100%. For `CN1CCN(CCNc2nc3ccc(Oc4ccc(NC(=O)Nc5cc(C(F)(F)F)ccc5F)cc4)cc3[nH]2)CC1`, the “MOTILITY REDUCTION/CYTOTOXICITY” value was 0%. Regarding `Cc1ccc2c(-c3ccnc(Nc4ccc(C(F)(F)F)cc4)n3)cnn2n1`, the “MOTILITY REDUCTION/CYTOTOXICITY” value came to 0%. As for `O=C1NC(=O)C(c2ccccc2)=C1Nc1ccc(Cl)c(C(=O)O)c1`, the figure is 0%; as for `COc1cc(Nc2nccc(N3CCC(NS(=O)(=O)c4ccc(NC(C)=O)cc4)CC3)n2)cc(OC)c1OC`, 33.4%; as for `FC(F)(F)c1ccc(-c2nn3ncccc3c2-c2ccnc(Nc3cccc(C(F)(F)F)c3)n2)cc1`, 0%. In the case of `COc1ccc(CNC(=O)NC2CCN(c3ccnc(Nc4ccc(F)cc4)n3)C2)cc1` (stereo not drawn), the “MOTILITY REDUCTION/CYTOTOXICITY” value was found to be 0%. As to `CCn1c(-c2nonc2N)nc2cncc(Br)c21`, the “MOTILITY REDUCTION/CYTOTOXICITY” value worked out at 33.4%. In the case of `CCN1CCN(CCCC(=O)Nc2n[nH]c3nc(-c4ccc(O)cc4)c(Br)cc23)CC1`, the “MOTILITY REDUCTION/CYTOTOXICITY” value was 20%. As for `FC(F)(F)c1ccc(-c2cc(-c3c[nH]nc3-c3ccccn3)ccn2)cc1`, the figure is 0%. With `COc1ccc(Nc2nccc(N3CCC(NC(=O)c4cc5ccccc5s4)C3)n2)cc1` (stereo not drawn) the figure was 0%; with `COc1ccc(Nc2nccc(N3CCC(NC(=O)Nc4cccc(OC)c4)C3)n2)cc1` (stereo not drawn), 0%; with `Cc1ccc(O)cc1Nc1ccnc2ccc(C(C)(C)C)cc12`, 100%.

In the case of `CN(c1ccc(NC(=O)N2CCN(CCCN3CCOCC3)CC2)cc1)c1ccnc(Nc2ccc(CS(C)(=O)=O)cc2)n1`, the “MOTILITY REDUCTION/CYTOTOXICITY” value came to 0%. As for `Nc1cccc(-c2ccc3c(N)n[nH]c3c2)n1`, the figure is 0%; as for `Cc1c2ccc(N(C)c3ccnc(Nc4cccc(S(N)(=O)=O)c4)n3)cc2nn1Cc1ccccc1`, 0%; as for `O=C(Nc1n[nH]c2nc(-c3cccc(O)c3)ccc12)C1CC1`, 0%.

In the case of `Nc1nccc2scc(-c3ccc4c(c3)CCN4C(=O)Cc3ccccc3)c12`, the “MOTILITY REDUCTION/CYTOTOXICITY” value is given as 0%. As for `COc1ccccc1-c1ccc2c(NC(=O)C3CC3)n[nH]c2n1`, the figure is 0%; as for `CS(=O)(=O)CCNCc1ccc(-c2ccc3ncnc(Nc4ccc(OCc5ccccc5)c(Cl)c4)c3c2)o1`, 20%; as for `O=C1NC(=O)C(c2ccc(Cl)cc2)=C1Nc1ccc(O)c(Cl)c1`, 33.4%.

With `COc1cc(Nc2nccc(-c3c(-c4cccc(NC(=O)c5c(F)cccc5F)c4)nn4ncccc34)n2)cc(OC)c1OC`, the “MOTILITY REDUCTION/CYTOTOXICITY” value was determined as 16.7%.
